Assays:
[1] = biological target: T1, purified human plasma kallikrein (Homo sapiens, UniProt P03952); assay: Plasma kallikrein enzyme inhibition assay (chromogenic substrate S-2302); assay type: biochemical; conditions: substrate S-2302, pH 7.5
T1 construct: Plasma prekallikrein is a zymogen of a trypsin-like serine protease; purchased Enzyme Research Laboratories
Description: (§1) The effectiveness of compounds of the present invention as inhibitors of the coagulation Factors XIa, VIIa, IXa, Xa, XIIa, plasma kallikrein or thrombin, can be determined using a relevant purified serine protease, respectively, and an appropriate synthetic substrate. The rate of hydrolysis of the chromogenic or fluorogenic substrate by the relevant serine protease was measured both in the absence and presence of compounds of the present invention. […] A decrease in the rate of absorbance or fluorescence change in the presence of inhibitor is indicative of enzyme inhibition. Such methods are known to one skilled in the art. The results of this assay are expressed as the inhibitory constant, Ki.
Plasma kallikrein determinations were made in 0.1 M sodium phosphate buffer at a pH of 7.5 containing 0.1-0.2 M sodium chloride and 0.5% PEG 8000. Determinations were made using purified human plasma kallikrein (Enzyme Research Laboratories) at a final assay concentration of 200 pM and the synthetic substrate S-2302 (H-(D)-Pro-Phe-Arg-pNA; Chromogenix) at a concentration of 0.00008-0.0004 M.
(§2) The Michaelis constant, Km, for substrate hydrolysis by each protease, was determined at 25° C. or 37° C. in the absence of inhibitor. Values of Ki were determined by allowing the protease to react with the substrate in the presence of the inhibitor. Reactions were allowed to go for periods of 20-180 minutes (depending on the protease) and the velocities (rate of absorbance or fluorescence change versus time) were measured. The following relationships were used to calculate Ki values: (Vmax*S)/(Km+S); (vo−vs)/vs=I/(Ki*(1+S/Km)) for a competitive inhibitor with one binding site; or vs/vo=A+((B−A)/(1+(IC50/(I))^n)); and Ki=IC50/(1+S/Km) for a competitive inhibitor where: […]

[2] = biological target: T2, purified human Factor XIa (Homo sapiens, UniProt P03951); assay: Factor XIa enzyme inhibition assay (chromogenic substrate S-2366); assay type: biochemical; conditions: substrate S-2366, pH 7.4
T2 construct: purchased Haematologic Technologies
T2 sequence (P03951 388-625 limits assumed): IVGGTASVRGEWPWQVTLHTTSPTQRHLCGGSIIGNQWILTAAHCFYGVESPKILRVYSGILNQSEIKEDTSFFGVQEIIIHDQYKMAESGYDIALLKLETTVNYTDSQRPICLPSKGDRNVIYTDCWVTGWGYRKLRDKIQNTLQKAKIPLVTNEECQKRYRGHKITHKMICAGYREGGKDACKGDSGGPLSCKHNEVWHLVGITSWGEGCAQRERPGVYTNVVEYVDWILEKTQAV
T2 sequence (P03951 19-387 partner limits assumed): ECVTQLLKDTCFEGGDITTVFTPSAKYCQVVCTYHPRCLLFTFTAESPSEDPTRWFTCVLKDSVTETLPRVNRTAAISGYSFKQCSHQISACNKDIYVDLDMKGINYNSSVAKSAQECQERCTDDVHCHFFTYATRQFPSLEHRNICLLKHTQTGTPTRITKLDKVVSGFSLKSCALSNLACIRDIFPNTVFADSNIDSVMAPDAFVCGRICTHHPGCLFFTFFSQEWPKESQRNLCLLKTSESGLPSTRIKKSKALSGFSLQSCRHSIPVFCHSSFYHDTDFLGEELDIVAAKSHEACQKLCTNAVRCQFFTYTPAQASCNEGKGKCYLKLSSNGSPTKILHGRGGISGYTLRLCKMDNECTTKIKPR
Description: as §1
Factor XIa determinations were made in 50 mM HEPES buffer at pH 7.4 containing 145 mM NaCl, 5 mM KCl, and 0.1% PEG 8000 (polyethylene glycol; JT Baker or Fisher Scientific). Determinations were made using purified human Factor XIa at a final concentration of 25-200 pM (Haematologic Technologies) and the synthetic substrate S-2366 (pyroGlu-Pro-Arg-pNA; Chromogenix or AnaSpec) at a concentration of 0.0002-0.001 M.
as §2

T1 sequence (P03952 391-638 limits assumed): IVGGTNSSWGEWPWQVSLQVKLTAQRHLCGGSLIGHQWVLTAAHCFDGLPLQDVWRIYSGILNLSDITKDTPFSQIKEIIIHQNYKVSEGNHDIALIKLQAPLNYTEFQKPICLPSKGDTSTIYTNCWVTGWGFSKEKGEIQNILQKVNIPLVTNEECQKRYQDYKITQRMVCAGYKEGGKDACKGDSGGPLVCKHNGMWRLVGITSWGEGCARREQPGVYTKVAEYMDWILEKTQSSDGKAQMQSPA
T1 sequence (P03952 20-390 partner limits assumed): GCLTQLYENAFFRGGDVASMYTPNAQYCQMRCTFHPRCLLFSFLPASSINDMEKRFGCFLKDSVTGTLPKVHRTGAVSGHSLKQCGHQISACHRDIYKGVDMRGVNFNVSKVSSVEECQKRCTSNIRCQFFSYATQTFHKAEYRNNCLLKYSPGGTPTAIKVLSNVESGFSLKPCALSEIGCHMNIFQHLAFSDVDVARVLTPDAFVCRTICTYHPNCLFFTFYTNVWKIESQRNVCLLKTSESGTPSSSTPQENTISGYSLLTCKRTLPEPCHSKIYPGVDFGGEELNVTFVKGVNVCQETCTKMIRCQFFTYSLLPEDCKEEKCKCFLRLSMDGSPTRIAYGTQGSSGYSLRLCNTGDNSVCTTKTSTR

SMILES	Ki [1] [nM]	Ki [2] [nM]
O=C1CCCCC[C@H](n2cnc(-c3cc(Cl)ccc3-n3cc(C(F)(F)F)nn3)cc2=O)C(=O)Nc2ccc(C(=O)O)cc2N1 [Example 28, (S)-3-(4-(5-chloro-2-(4-(trifluoromethyl)-1H-1,2,3-triazol-1-yl)phenyl)-6-oxopyrimidin-1(6H)-yl)-2,9-dioxo-1,2,3,4,5,6,7,8,9,10-decahydrobenzo[b][1,4]diazacyclododecine-12-carboxylic acid]	11600	173
C[C@@H]1CCC[C@H](n2cnc(-c3c(-n4cc(Cl)nn4)ccc(Cl)c3F)cc2=O)C(=O)NCc2ccccc2NC1=O [Example 12, (3R,7S)-7-(4-(3-Chloro-6-(4-chloro-1H-1,2,3-triazol-1-yl)-2-fluorophenyl)-6-oxopyrimidin-1(6H)-yl)-3-methyl-4,5,6,7,9,10-hexahydrobenzo[b][1,5]diazacyclo-dodecine-2,8(1H,3H)-dione]	179	2
C[C@@H]1CCC[C@H](n2cnc(-c3c(-n4cc(C(F)(F)F)nn4)ccc(Cl)c3F)cc2=O)C(=O)NCc2ccccc2NC1=O [Example 14, (3R,7S)-7-(4-(3-Chloro-2-fluoro-6-(4-(trifluoromethyl)-1H-1,2,3-triazol-1-yl)phenyl)-6-oxopyrimidin-1(6H)-yl)-3-methyl-4,5,6,7,9,10-hexahydrobenzo[b][1,5]-diazacyclododecine-2,8(1H,3H)-dione]	733	4.3
Cc1c(C(=O)N[C@H]2CCCCCC(=O)Nc3cc(C(=O)O)ccc3NC2=O)cnn1-c1cccc(Cl)c1F [Example 26, (S)-3-(1-(3-chloro-2-fluorophenyl)-5-methyl-1H-pyrazole-4-carboxamido)-2,9-dioxo-1,2,3,4,5,6,7,8,9,10-decahydrobenzo[b][1,4]diazacyclododecine-12-carboxylic acid]	765	1740
COC(=O)c1ccc2c(c1)NC(=O)CCCCC[C@H](n1cnc(-c3cc(Cl)ccc3-n3cc(C(F)(F)F)nn3)cc1=O)C(=O)N2 [Example 27, methyl (S)-3-(4-(5-chloro-2-(4-(trifluoromethyl)-1H-1,2,3-triazol-1-yl)phenyl)-6-oxopyrimidin-1(6H)-yl)-2,9-dioxo-1,2,3,4,5,6,7,8,9,10-decahydrobenzo[b][1,4]diazacyclododecine-12-carboxylate]	> 13000	561
C[C@@H]1CCC[C@H](n2cnc(-c3cc(Cl)ccc3-n3cc(C(F)(F)F)nn3)cc2=O)C(=O)NCc2ccccc2NC1=O [Example 11, (3R,7S)-7-(4-(5-Chloro-2-(4-(trifluoromethyl)-1H-1,2,3-triazol-1-yl)phenyl)-6-oxopyrimidin-1(6H)-yl)-3-methyl-4,5,6,7,9,10-hexahydrobenzo[b][1,5]-diazacyclododecine-2,8(1H, 3H)-dione]	3380	18.7
C[C@@H]1CCC[C@H](n2cnc(-c3cc(Cl)ccc3-n3cc(C(F)(F)F)nn3)cc2=O)C(=O)NCc2cc(F)ccc2NC1=O [Example 19, (3R,7S)-7-(4-(5-Chloro-2-(4-(trifluoromethyl)-1H-1,2,3-triazol-1-yl)phenyl)-6-oxopyrimidin-1(6H)-yl)-12-fluoro-3-methyl-4,5,6,7,9,10-hexahydrobenzo[b][1,5]diazacyclododecine-2,8(1H,3H)-dione]	≥ 13000	18.7
CC1NC(=O)[C@@H](N2CCC(c3cc(Cl)ccc3-n3cc(C(F)(F)F)nn3)=CC2=O)CCC[C@@H](C)C(=O)Nc2ccccc21 (single isomer, unassigned; diastereomer b) [Example 22]	> 13000	3680
O=C1CCCCC[C@H](NC(=O)c2cn(-c3cccc(Cl)c3F)nn2)C(=O)Nc2ccccc2N1 [Example 25, (S)-1-(3-chloro-2-fluorophenyl)-N-(2,9-dioxo-1,2,3,4,5,6,7,8,9,10-decahydrobenzo[b][1,4]diazacyclododecin-3-yl)-1H-1,2,3-triazole-4-carboxamide]	> 13000	6000
C[C@@H]1CCC[C@H](N2CCC(c3cc(Cl)ccc3-n3cc(C(F)(F)F)nn3)=CC2=O)C(=O)NCc2cc(F)ccc2NC1=O [Example 20, (3R,7S)-7-(4-(5-Chloro-2-(4-(trifluoromethyl)-1H-1,2,3-triazol-1-yl)phenyl)-2-oxo-5,6-dihydropyridin-1(2H)-yl)-12-fluoro-3-methyl-4,5,6,7,9,10-hexahydrobenzo[b][1,5]diazacyclododecine-2,8(1H,3H)-dione]	268	7
CC1NC(=O)[C@@H](N2CCC(c3cc(Cl)ccc3-n3cc(C(F)(F)F)nn3)=CC2=O)CCC[C@@H](C)C(=O)Nc2ccccc21 (single isomer, unassigned; diastereomer a) [Example 21]	2830	93
C[C@@H]1CCC[C@H](N2CCC(c3cc(Cl)ccc3-n3cc(Cl)nn3)=CC2=O)C(=O)NCc2ccccc2NC1=O [Example 16, (3R,7S)-7-(4-(5-Chloro-2-(4-chloro-H-1,2,3-triazol-1-yl)phenyl)-2-oxo-5,6-dihydropyridin-1(2H)-yl)-3-methyl-4,5,6,7,9,10-hexahydrobenzo[b][1,5]diazacyclododecine-2,8(1H, 3H)-dione]	60.7	4
C[C@@H]1CCC[C@H](NC(=O)c2cn(-c3cccc(Cl)c3F)nn2)C(=O)NCc2ccccc2NC1=O [Example 23, 1-(3-chloro-2-fluorophenyl)-N-((3R,7S)-3-methyl-2,8-dioxo-1,2,3,4,5,6,7,8,9,10-decahydrobenzo[b][1,5]diazacyclododecin-7-yl)-1H-1,2,3-triazole-4-carboxamide]	≥ 13000	8730
C[C@@H]1CCC[C@H](n2cnc(-c3cc(Cl)ccc3-n3cc(C(F)F)nn3)cc2=O)C(=O)NCc2ccccc2NC1=O [Example 15, (3R,7S)-7-(4-(5-Chloro-2-(4-(difluoromethyl)-1H-1,2,3-triazol-1-yl)phenyl)-6-oxopyrimidin-1(6H)-yl)-3-methyl-4,5,6,7,9,10-hexahydrobenzo[b][1,5]diazacyclo-dodecine-2,8(1H, 3H)-dione]	3360	34.8
C[C@@H]1CCC[C@H](N2CCC(c3cc(Cl)ccc3-n3cc(C(F)(F)F)nn3)=CC2=O)C(=O)NCc2ccccc2NC1=O [Example 18]	103	3.1
Cc1c(C(=O)N[C@H]2CCC[C@@H](C)C(=O)Nc3ccccc3CNC2=O)ncn1-c1cccc(Cl)c1F [Example 24, 1-(3-chloro-2-fluorophenyl)-5-methyl-N-((3R,7S)-3-methyl-2,8-dioxo-1,2,3,4,5,6,7,8,9,10-decahydrobenzo[b][1,5]diazacyclododecin-7-yl)-1H-imidazole-4-carboxamide]	4360	7410
C[C@@H]1CCC[C@H](n2cnc(-c3cc(Cl)ccc3-n3cc(Cl)nn3)cc2=O)C(=O)NCc2ccccc2NC1=O [Example 13, (3R,7S)-7-(4-(5-Chloro-2-(4-chloro-1H-1,2,3-triazol-1-yl)phenyl)-6-oxopyrimidin-1(6H)-yl)-3-methyl-4,5,6,7,9,10-hexahydrobenzo[b][1,5]diazacyclo-dodecine-2,8(1H,3H)-dione]	1230	8.5
C[C@@H]1CCC[C@H](N2CCC(c3c(F)ccc(Cl)c3F)=CC2=O)C(=O)NCc2ccccc2NC1=O [Example 17, (3R,7S)-7-(4-(3-Chloro-2,6-difluorophenyl)-2-oxo-56-dihydropyridin-1(2H)-yl)-3-methy 1-4,5,6,7,9,10-hexahydrobenzo[b][1,5]diazacyclododecine-2,8(1H,3H)-dione]	558	112
C[C@@H]1CCC[C@H](n2ccc(-c3cc(Cl)ccc3-n3cc(Cl)nn3)cc2=O)C(=O)NCc2ccccc2NC1=O [Example 18]	259	10.1
